Results as given in ChEMBL document CHEMBL3243923, “Linked Aryl Aryloxypropanolamines as a new class of lipid catabolis agents” (J Med Chem, 1978).
The source made the active and inactive calls. The calls are words filed in the database; no cut-off is given here.

Assays:
Mus musculus [1] = test: Antiobesity activity in mouse assessed as reduction in utero fat administered every day through diet for 10 days measured after day 10; assay type: functional; settings: 240 h
Rattus norvegicus [2] = test: Antiobesity activity in rat assessed as reduction in body weight at 80 mg/kg administered every day through diet for 5 weeks measured for 5 weeks relative to control; assay type: functional; design: scale not given: the % may be the effect or the level left
Rattus norvegicus [3] = test: Antiobesity activity in rat assessed as reduction in food intake at 80 mg/kg, po qd administered for 5 days measured every day for 5 days relative to control; assay type: functional; design: scale not given: the % may be the effect or the level left
[4] = (§1) Chronic toxicity in po dosed mouse assessed as mortality administered as qd for 21 days; assay type: organism-based; settings: in vivo, read-out: MNTD
Mus musculus [5] = test: Antiobesity activity in mouse assessed as reduction in utero fat at 0.01% administered every day through diet for 10 days measured after day 10 relative to control; assay type: functional; design: scale not given: the % may be the effect or the level left
Rhesus monkey = test: Toxicity in monkey assessed as estrogenic activity; assay type: organism-based, Macaca mulatta; settings: in vivo
Rattus norvegicus [6] = test: Toxicity in rat assessed as increase in adrenal weight at 80 mg/kg administered every day through diet for 5 weeks measured after 5th week relative to control; assay type: organism-based; design: dose 80 mg/kg; settings: in vivo, po, 840 h
Rattus norvegicus [7] = species: Rattus norvegicus; test: Toxicity in rat assessed as lymphopenia; assay type: organism-based; settings: in vivo
Rattus norvegicus [8] = test: Toxicity in rat assessed as increase in adrenal weight at 80 mg/kg, po qd administered for 5 days measured on day 6 relative to control; assay type: organism-based; design: dose 80 mg/kg, route oral; settings: in vivo, 120 h
Canis familiaris [9] = test: Toxicity in Beagle dog assessed as emesis up to 150 mg/kg administered through gelatin capsule for every week for 6 weeks; assay type: organism-based, Canis lupus familiaris; design: dose 150 mg/kg; settings: in vivo, 1008 h
Rattus norvegicus [10] = test: Toxicity in rat assessed as decrease in liver weight at 80 mg/kg, po qd administered for 5 days measured on day 6 relative to control; assay type: organism-based; design: dose 80 mg/kg, route oral; scale not given: the % may be the effect or the level left; settings: in vivo, 120 h
Mus musculus [11] = test: Toxicity in mouse assessed as liver hypertrophy at 1000 mg/kg, po administered for 21 days; assay type: organism-based; design: dose 1000 mg/kg, route oral; settings: in vivo, 504 h
[12] = Therapeutic index, ratio of MNTD for chronic toxicity in po dosed mouse to ED25 for antiobesity activity in mouse assessed as reduction in utero fat; assay type: organism-based; settings: in vivo, read-out: TI
Rattus norvegicus [13] = test: Toxicity in rat assessed as decrease in liver weight at 80 mg/kg administered every day through diet for 5 weeks measured after 5th week relative to control; assay type: organism-based; design: dose 80 mg/kg; scale not given: the % may be the effect or the level left; settings: in vivo, po, 840 h
Canis familiaris [14] = test: Antiobesity activity in Beagle dog assessed as decrease in body weight at 4 mg/kg administered every day through gelatin capsule for 6 weeks measured every week for 6 weeks relative to placebo control; assay type: functional, Canis lupus familiaris; design: scale not given: the % may be the effect or the level left
Rattus norvegicus [15] = test: Antiobesity activity in rat assessed as reduction in utero fat at 80 mg/kg administered every day through diet for 5 weeks measured after 5th week relative to control; assay type: functional; design: scale not given: the % may be the effect or the level left
Mus musculus [16] = test: Reduction of plasma insulin level in mouse at 0.04% administered every day through diet for 10 days measured on day 10 by double antibody method relative to control; assay type: functional; design: scale not given: the % may be the effect or the level left
Rattus norvegicus [17] = test: Antiobesity activity in rat assessed as reduction in food intake at 80 mg/kg administered every day through diet for 5 weeks measured every week for 5 weeks relative to control; assay type: functional; design: scale not given: the % may be the effect or the level left
Canis familiaris [18] = test: Antiobesity activity in Beagle dog assessed as decrease in food intake at 4 mg/kg administered every day through gelatin capsule for 6 weeks measured every day 2 hrs post feeding relative to placebo control; assay type: functional, Canis lupus familiaris; design: scale not given: the % may be the effect or the level left
Rattus norvegicus [19] = test: Antiobesity activity in rat assessed as reduction in body weight at 80 mg/kg, po qd administered for 5 days measured on day 6 relative to control; assay type: functional; design: scale not given: the % may be the effect or the level left
Rattus norvegicus [20] = species: Rattus norvegicus; test: Toxicity in rat assessed as estrogenic activity; assay type: organism-based; settings: in vivo
Rattus norvegicus [21] = test: Toxicity in rat assessed as increase in liver weight at 100 mg/kg, po qd administered for 5 days measured on day 6 relative to control; assay type: organism-based; design: dose 100 mg/kg, route oral; settings: in vivo, 120 h
Mus musculus [22] = test: Antiobesity activity in mouse assessed as reduction in utero fat at 0.02% administered every day through diet for 10 days measured after day 10 relative to control; assay type: functional; design: scale not given: the % may be the effect or the level left
Rattus norvegicus [23] = test: Toxicity in rat assessed as increase in adrenal weight at 100 mg/kg, po qd administered for 5 days measured on day 6 relative to control; assay type: organism-based; design: dose 100 mg/kg, route oral; settings: in vivo, 120 h
Rattus norvegicus [24] = test: Antiobesity activity in rat assessed as reduction in utero fat at 100 mg/kg, po qd administered for 5 days measured on day 6 relative to control; assay type: functional; design: scale not given: the % may be the effect or the level left
Rattus norvegicus [25] = test: Antiobesity activity in rat assessed as reduction in food intake at 100 mg/kg, po qd administered for 5 days measured every day for 5 days relative to control; assay type: functional; design: scale not given: the % may be the effect or the level left
Rattus norvegicus [26] = test: Antiobesity activity in rat assessed as reduction in body weight at 100 mg/kg, po qd administered for 5 days measured on day 6 relative to control; assay type: functional; design: scale not given: the % may be the effect or the level left
Mus musculus [27] = test: Effect on blood glucose level in mouse at 0.01% administered every day through diet for 10 days measured on day 10 by glucose oxidase method; assay type: functional, organism-based
Mus musculus [28] = test: Reduction of plasma insulin level in mouse at 0.01% administered every day through diet for 10 days measured on day 10 by double antibody method relative to control; assay type: functional; design: scale not given: the % may be the effect or the level left
Mus musculus [29] = test: Antiobesity activity in mouse assessed as reduction in utero fat at 0.04% administered every day through diet for 10 days measured after day 10 relative to control; assay type: functional; design: scale not given: the % may be the effect or the level left
Canis familiaris [30] = test: Antiobesity activity in Beagle dog assessed as decrease in food intake at 4 mg/kg administered every day through gelatin capsule for 6 weeks measured 9 days post last dose; assay type: functional, organism-based; design: dose 4 mg/kg; settings: Canis lupus familiaris
Mus musculus [31] = test: Effect on blood glucose level in mouse at 0.04% administered every day through diet for 10 days measured on day 10 by glucose oxidase method; assay type: functional, organism-based
Mus musculus [32] = test: as §1; assay type: organism-based; settings: in vivo, 504 h
Mus musculus [33] = test: Antiobesity activity in mouse assessed as reduction in utero fat at 0.005% administered every day through diet for 10 days measured after day 10 relative to control; assay type: functional; design: scale not given: the % may be the effect or the level left
Mus musculus [34] = test: Antiobesity activity in mouse assessed as reduction in utero fat at 0.08% administered every day through diet for 10 days measured after day 10 relative to control; assay type: functional; design: scale not given: the % may be the effect or the level left
Canis familiaris [35] = test: Toxicity in Beagle dog assessed as emesis up to 10 mg/kg administered through gelatin capsule for every week for 6 weeks; assay type: organism-based, Canis lupus familiaris; design: dose 10 mg/kg; settings: in vivo, 1008 h

## CC(C)NCC(O)COc1c(C(C)(C)C)cc(/C=C/c2ccccc2)cc1C(C)(C)C (racemic) [listing 1 of 2 here]
Mus musculus [1]
  ED25: 10 mg/kg
Rattus norvegicus [2]
  Activity: 9%
Rattus norvegicus [3]
  Activity: 79%
[4]
  MTD at 504 h: 50 mg/kg
Mus musculus [5]
  Activity: 26%
Rhesus monkey
  Activity: Non-toxic
Rattus norvegicus [6]
  Activity: 16%
Rattus norvegicus [7]
  Activity: Toxic
Rattus norvegicus [8]
  Activity: 21%
Canis familiaris [9]
  Activity: Toxic
Rattus norvegicus [10]
  Activity: 9%
Mus musculus [11]
  Activity: Non-toxic
[12]
  selectivity ratio: 5
Rattus norvegicus [13]
  Activity: 3.4%
Canis familiaris [14]
  Activity: 13%
Rattus norvegicus [15]
  Activity: 35%
Mus musculus [16]
  Activity: 27%
Rattus norvegicus [17]
  Activity: 10%
Canis familiaris [18]
  Activity: 40%
Rattus norvegicus [19]
  Activity: 10%
Rattus norvegicus [20]
  Activity: Non-toxic

## CC(C)NCC(O)COc1ccc(Oc2ccc(Cl)cc2)cc1 (configuration not stated)
Mus musculus [1]
  ED25: 18 mg/kg
[4]
  MTD at 504 h: 100 mg/kg
Rattus norvegicus [21]
  Activity: 11%
Mus musculus [22]
  Activity: 25%
Rattus norvegicus [23]
  Activity: 8%
Rattus norvegicus [24]
  Activity: 18%
Mus musculus [11]
  Activity: Non-toxic
[12]
  selectivity ratio: 5.5
Rattus norvegicus [25]
  Activity: 22%
Rattus norvegicus [26]
  Activity: 1%

## CC(C)NCC(O)COc1c(C(C)(C)C)cc(/C=C/c2cccs2)cc1C(C)(C)C (configuration not stated)
Mus musculus [1]
  ED25: 6 mg/kg
[4]
  MTD at 504 h: < 25 mg/kg
Mus musculus [27]
  Activity: inactive
Mus musculus [22]
  Activity: 30%
Mus musculus [11]
  Activity: Non-toxic
[12]
  selectivity ratio: < 4.1
Mus musculus [28]
  Activity: 46%

## CC(C)NCC(O)COc1c(C(C)(C)C)cc(-c2ccccc2)cc1C(C)(C)C.Cl (configuration not stated)
Mus musculus [1]
  ED25: 20 mg/kg
[4]
  MTD at 504 h: 100 mg/kg
Rattus norvegicus [21]
  Activity: 21%
Rattus norvegicus [23]
  Activity: 16%
Rattus norvegicus [24]
  Activity: 28%
Mus musculus [11]
  Activity: Toxic
[12]
  selectivity ratio: 5
Rattus norvegicus [25]
  Activity: 51%
Mus musculus [29]
  Activity: 28%
Rattus norvegicus [26]
  Activity: 4%

## CC(C)NCC(O)COc1c(C(C)(C)C)cc(/C=C/c2ccccc2)cc1C(C)(C)C (racemic) [listing 2 of 2 here]
Canis familiaris [30]
  Activity: inactive
Mus musculus [31]
  Activity: inactive

## CC(C)NCC(O)COc1c(C(C)(C)C)cc(-c2cccs2)cc1C(C)(C)C.O=C(O)/C=C\C(=O)O (configuration not stated)
Mus musculus [32]
  Activity: Toxic
Mus musculus [33]
  Activity: 33%

## CC(C)NCC(O)COc1c(C(C)(C)C)cc(/C=C/c2ccc(O)cc2)cc1C(C)(C)C.O=C(O)/C=C\C(=O)O (configuration not stated)
Mus musculus [22]
  Activity: 20%

## CCc1cc(/C=C/c2ccccc2)cc(CC)c1OCC(O)CNC(C)C (configuration not stated)
Mus musculus [1]
  ED25: 45 mg/kg
[4]
  MTD at 504 h: 75 mg/kg
Mus musculus [22]
  Activity: 20%
Mus musculus [11]
  Activity: Non-toxic
[12]
  selectivity ratio: 1.7

## C[C@H](N)Cc1ccccc1 [DEXTROAMPHETAMINE]
Mus musculus [5]
  Activity: 34%
Rattus norvegicus [7]
  Activity: Toxic
Mus musculus [29]
  Activity: 59%

## COc1ccc(/C=C/c2cc(C(C)(C)C)c(OCC(O)CNC(C)C)c(C(C)(C)C)c2)cc1 (configuration not stated)
Mus musculus [1]
  ED25: 20 mg/kg
[4]
  MTD at 504 h: 25 mg/kg
Mus musculus [22]
  Activity: 26%
Mus musculus [11]
  Activity: Non-toxic
[12]
  selectivity ratio: 1.25

## CCNC(C)Cc1cccc(C(F)(F)F)c1 (configuration not stated) [FENFLURAMINE]
Mus musculus [34]
  Activity: 20%
Mus musculus [29]
  Activity: inactive
Canis familiaris [35]
  Activity: Non-toxic

## CC(C)NCC(O)COc1c(C(C)(C)C)cc(-c2ccc(Cl)cc2)cc1C(C)(C)C (configuration not stated)
Mus musculus [1]
  ED25: 30 mg/kg
[4]
  MTD at 504 h: 100 mg/kg
Mus musculus [11]
  Activity: Non-toxic
[12]
  selectivity ratio: 3.6
Mus musculus [29]
  Activity: 36%

## CC(C)NCC(O)COc1c(C(C)(C)C)cc(/C=C/c2ccccc2)cc1C(C)(C)C (configuration not stated)
Mus musculus [22]
  Activity: inactive

## CC(C)NCC(O)COc1ccc(-c2cccs2)cc1 (configuration not stated)
Mus musculus [32]
  Activity: Toxic
Mus musculus [5]
  Activity: 34%

## CC(C)NCC(O)COc1c(C(C)(C)C)cc(/C=C/c2ccc(Br)cc2)cc1C(C)(C)C (configuration not stated)
Mus musculus [1]
  ED25: 34 mg/kg
[4]
  MTD at 504 h: 150 mg/kg
Mus musculus [22]
  Activity: 31%
Mus musculus [11]
  Activity: Non-toxic
[12]
  selectivity ratio: 4.3
